Reference: ChEMBL document CHEMBL1938275, “Antibacterial activity of chalcones, hydrazones and oxadiazoles against methicillin-resistant Staphylococcus aureus” (Bioorg Med Chem Lett, 2012)
In brackets after ≈: the same amount, converted by molar mass.

What was measured:
[1] = test system: Staphylococcus aureus; test: Antibacterial activity against methicillin-resistant Staphylococcus aureus isolate 5 after 24 hrs by broth microdilution method; assay type: functional; conditions: isolate 5, 24 h
[2] = test system: Staphylococcus aureus; test: Antibacterial activity against methicillin-resistant Staphylococcus aureus isolate 3 after 24 hrs by broth microdilution method; assay type: functional; conditions: isolate 3, 24 h
[3] = test system: Staphylococcus aureus; test: Antibacterial activity against methicillin-resistant Staphylococcus aureus isolate 10 after 24 hrs by broth microdilution method; assay type: functional; conditions: isolate 10, 24 h
[4] = test system: Staphylococcus aureus; test: Antibacterial activity against methicillin-resistant Staphylococcus aureus isolate 7 after 24 hrs by broth microdilution method; assay type: functional; conditions: isolate 7, 24 h
[5] = test system: Staphylococcus aureus; test: Antibacterial activity against methicillin-resistant Staphylococcus aureus isolate 11 after 24 hrs by broth microdilution method; assay type: functional; conditions: isolate 11, 24 h
[6] = test system: Staphylococcus aureus; test: Selectivity index, Ratio of CC50 for african green monkey Vero cells to IC50 for Staphylococcus aureus
[7] = test system: Staphylococcus aureus; test: Antibacterial activity against methicillin-resistant Staphylococcus aureus isolate 9 after 24 hrs by broth microdilution method; assay type: functional; conditions: isolate 9, 24 h
[8] = test system: Staphylococcus aureus; test: Antibacterial activity against methicillin-sensitive Staphylococcus aureus ATCC 25923 after 24 hrs by broth microdilution method; assay type: functional; conditions: ATCC 25923, 24 h
[9] = test system: Staphylococcus aureus; test: Antibacterial activity against methicillin-resistant Staphylococcus aureus isolate 13 after 24 hrs by broth microdilution method; assay type: functional; conditions: isolate 13, 24 h
[10] = test system: Vero; test: Cytotoxicity against African green monkey Vero cells assessed as inhibition of cell growth after 72 hrs by MTT assay; assay type: cell-based; conditions: Chlorocebus sabaeus
[11] = test system: Staphylococcus aureus; test: Antibacterial activity against methicillin-resistant Staphylococcus aureus isolate 8 after 24 hrs by broth microdilution method; assay type: functional; conditions: isolate 8, 24 h
[12] = test system: Staphylococcus aureus; test: Antibacterial activity against methicillin-resistant Staphylococcus aureus isolate 4 after 24 hrs by broth microdilution method; assay type: functional; conditions: isolate 4, 24 h
[13] = test system: Staphylococcus aureus; test: Antibacterial activity against methicillin-resistant Staphylococcus aureus isolate 1 after 24 hrs by broth microdilution method; assay type: functional; conditions: isolate 1, 24 h
[14] = Cytotoxicity against african green monkey Vero cells assessed as cell death after 72 hrs by MTT assay; assay type: cell-based; conditions: chlorocebus sabaeus
[15] = test system: Staphylococcus aureus; test: Antibacterial activity against methicillin-resistant Staphylococcus aureus isolate 2 after 24 hrs by broth microdilution method; assay type: functional; conditions: isolate 2, 24 h
[16] = test system: Staphylococcus aureus; test: Antibacterial activity against methicillin-resistant Staphylococcus aureus isolate 6 after 24 hrs by broth microdilution method; assay type: functional; conditions: isolate 6, 24 h
[17] = test system: Staphylococcus aureus; test: Antibacterial activity against methicillin-resistant Staphylococcus aureus isolate 14 after 24 hrs by broth microdilution method; assay type: functional; conditions: isolate 14, 24 h
[18] = test system: Staphylococcus aureus; test: Antibacterial activity against methicillin-resistant Staphylococcus aureus isolate 12 after 24 hrs by broth microdilution method; assay type: functional; conditions: isolate 12, 24 h
[19] = test system: Staphylococcus aureus; test: Antibacterial activity against methicillin-resistant Staphylococcus aureus isolate 5 at 30 ug after 24 hrs by disk diffusion assay; assay type: functional; conditions: isolate 5, 24 h, read-out: DIZ
[20] = test system: Staphylococcus aureus; test: Antibacterial activity against methicillin-resistant Staphylococcus aureus isolate 4 at 30 ug after 24 hrs by disk diffusion assay; assay type: functional; conditions: isolate 4, 24 h, read-out: DIZ

Row | Structure (SMILES) | MIC [1] [µg/mL] | MIC [2] [µg/mL] | MIC [3] [µg/mL] | MIC [4] [µg/mL] | MIC [5] [µg/mL] | Ratio CC50/IC50 [6] | MIC [7] [µg/mL] | MIC [8] [µg/mL] | MIC [9] [µg/mL] | IC50 [10] [µg/mL] | MIC [11] [µg/mL] | MIC [12] [µg/mL] | MIC [13] [µg/mL] | CC50 at 72 h [14] [µg/mL] | MIC [15] [µg/mL] | MIC [16] [µg/mL] | MIC [17] [µg/mL] | MIC [18] [µg/mL] | zone of inhibition at 30 µg/disc [19] [mm] | zone of inhibition at 30 µg/disc [20] [mm]
1 | O=C(N/N=C/c1ccc([N+](=O)[O-])o1)c1ccccc1 | 62.5 (≈ 241 µM) | 62.5 (≈ 241 µM) | 15.6 (≈ 60.3 µM) | 125 (≈ 482 µM) | 125 (≈ 482 µM) | 62.6 | 125 (≈ 482 µM) | 62.5 (≈ 241 µM) | 62.5 (≈ 241 µM) | 7.81 (≈ 30.1 µM) | 125 (≈ 482 µM) | 15.6 (≈ 60.3 µM) | 125 (≈ 482 µM) | 489 (≈ 1890 µM) | 62.5 (≈ 241 µM) | 62.5 (≈ 241 µM) | 62.5 (≈ 241 µM) | 62.5 (≈ 241 µM) | – | –
2 | CO[C@@]1(NC(=O)Cc2cccs2)C(=O)N2C(C(=O)O)=C(COC(N)=O)CS[C@@H]21 [CEFOXITIN] | – | – | – | – | – | – | – | – | – | – | – | – | – | – | – | – | – | – | 33 | 22
3 | COc1ccc(C(=O)/C=C/c2ccc(O)cc2)c(O)c1CC=C(C)C | ≥ 1000 | ≥ 1000 | ≥ 1000 | ≥ 1000 | ≥ 1000 | – | ≥ 1000 | – | ≥ 1000 | – | ≥ 1000 | ≥ 1000 | ≥ 1000 | – | ≥ 1000 | ≥ 1000 | ≥ 1000 | ≥ 1000 | – | –
4 | COc1cc(C(=O)N/N=C/c2ccc([N+](=O)[O-])s2)cc(OC)c1OC | 125 (≈ 342 µM) | 125 (≈ 342 µM) | 125 (≈ 342 µM) | 125 (≈ 342 µM) | 125 (≈ 342 µM) | 109.7 | 125 (≈ 342 µM) | 15.6 (≈ 42.8 µM) | 125 (≈ 342 µM) | 7.81 (≈ 21.4 µM) | 125 (≈ 342 µM) | 15.6 (≈ 42.8 µM) | 125 (≈ 342 µM) | 857 (≈ 2340 µM) | 125 (≈ 342 µM) | 125 (≈ 342 µM) | 125 (≈ 342 µM) | 125 (≈ 342 µM) | – | –
5 | CN[C@H](CC(C)C)C(=O)N[C@H]1C(=O)N[C@@H](CC(N)=O)C(=O)N[C@H]2C(=O)N[C@H]3C(=O)N[C@H](C(=O)N[C@H](C(=O)O)c4cc(O)cc(O)c4-c4cc3ccc4O)[C@H](O)c3ccc(c(Cl)c3)Oc3cc2cc(c3O[C@@H]2O[C@H](CO)[C@@H](O)[C@H](O)[C@H]2O[C@H]2C[C@](C)(N)[C@H](O)[C@H](C)O2)Oc2ccc(cc2Cl)[C@H]1O [VANCOMYCIN] | 0.4 (≈ 0.276 µM) | 0.8 (≈ 0.552 µM) | 0.8 (≈ 0.552 µM) | 0.8 (≈ 0.552 µM) | 0.8 (≈ 0.552 µM) | – | 0.8 (≈ 0.552 µM) | 0.2 (≈ 0.138 µM) | 0.8 (≈ 0.552 µM) | – | 0.8 (≈ 0.552 µM) | 0.8 (≈ 0.552 µM) | 0.8 (≈ 0.552 µM) | – | 0.8 (≈ 0.552 µM) | 0.4 (≈ 0.276 µM) | 0.8 (≈ 0.552 µM) | 0.8 (≈ 0.552 µM) | – | –
6 | O=C(CCc1ccc(O)cc1)c1c(O)cc(O)cc1O [PHLORETIN] | 250 (≈ 912 µM) | 250 (≈ 912 µM) | 250 (≈ 912 µM) | 250 (≈ 912 µM) | 250 (≈ 912 µM) | 5.9 | 250 (≈ 912 µM) | 250 (≈ 912 µM) | 250 (≈ 912 µM) | 125 (≈ 456 µM) | 250 (≈ 912 µM) | 250 (≈ 912 µM) | 250 (≈ 912 µM) | 735 (≈ 2680 µM) | 250 (≈ 912 µM) | 250 (≈ 912 µM) | 250 (≈ 912 µM) | 250 (≈ 912 µM) | – | –
7 | CC(C)=CCC/C(C)=C/Cc1c(O)ccc(C(=O)/C=C/c2ccc(O)c(CC=C(C)C)c2)c1O | – | – | – | – | – | – | – | 31.2 (≈ 67.7 µM) | – | – | – | – | – | – | – | – | – | – | – | –
8 | O=C(CCc1ccccc1O)c1ccccc1 | ≥ 1000 | ≥ 1000 | ≥ 1000 | ≥ 1000 | ≥ 1000 | – | ≥ 1000 | 500 (≈ 2210 µM) | ≥ 1000 | – | ≥ 1000 | ≥ 1000 | ≥ 1000 | – | ≥ 1000 | ≥ 1000 | ≥ 1000 | ≥ 1000 | – | –
9 | CC(C)=CCc1c(O)ccc(C(=O)/C=C/c2ccc(O)cc2)c1O [ISOBAVACHALCONE] | 62.5 (≈ 193 µM) | 62.5 (≈ 193 µM) | 125 (≈ 385 µM) | 125 (≈ 385 µM) | 62.5 (≈ 193 µM) | 23.25 | 62.5 (≈ 193 µM) | 31.2 (≈ 96.3 µM) | 125 (≈ 385 µM) | 31.2 (≈ 96.3 µM) | 125 (≈ 385 µM) | 15.6 (≈ 48.2 µM) | 62.5 (≈ 193 µM) | 727 (≈ 2240 µM) | 62.5 (≈ 193 µM) | 62.5 (≈ 193 µM) | 62.5 (≈ 193 µM) | 62.5 (≈ 193 µM) | – | –
10 | O=C(/C=C/c1ccc(O)cc1)c1ccc(O)cc1O [ISOLIQUIRITIGENIN] | 62.5 (≈ 244 µM) | 62.5 (≈ 244 µM) | 62.5 (≈ 244 µM) | 62.5 (≈ 244 µM) | 62.5 (≈ 244 µM) | 14.8 | 62.5 (≈ 244 µM) | 31.2 (≈ 122 µM) | 62.5 (≈ 244 µM) | 31.2 (≈ 122 µM) | 62.5 (≈ 244 µM) | 62.5 (≈ 244 µM) | 62.5 (≈ 244 µM) | 464 (≈ 1810 µM) | 62.5 (≈ 244 µM) | 62.5 (≈ 244 µM) | 62.5 (≈ 244 µM) | 62.5 (≈ 244 µM) | – | –
